Target: T1, HuR (Homo sapiens, UniProt Q15717)
T1 construct: gene ELAVL1; full-length HuR (326 residues)
Test: SPR steady state (Biacore T200, immobilized HuR); supported by concentration-dependent positive DSF shift
Type: binding

T1 sequence (Q15717 whole entry): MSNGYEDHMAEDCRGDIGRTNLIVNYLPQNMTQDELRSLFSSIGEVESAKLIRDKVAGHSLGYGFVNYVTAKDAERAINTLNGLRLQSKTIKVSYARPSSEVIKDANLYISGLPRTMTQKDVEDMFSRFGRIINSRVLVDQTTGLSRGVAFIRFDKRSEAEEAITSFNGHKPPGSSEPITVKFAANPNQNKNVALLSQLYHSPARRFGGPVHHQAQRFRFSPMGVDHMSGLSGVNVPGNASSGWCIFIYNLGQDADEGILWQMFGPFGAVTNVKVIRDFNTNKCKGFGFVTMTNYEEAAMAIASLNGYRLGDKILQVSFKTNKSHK

Compound: Cc1ccc(C(=O)Nc2ccc(S(=O)(=O)O)c3cc(S(=O)(=O)O)cc(S(=O)(=O)O)c23)cc1NC(=O)c1cccc(NC(=O)Nc2cccc(C(=O)Nc3cc(C(=O)Nc4ccc(S(=O)(=O)O)c5cc(S(=O)(=O)O)cc(S(=O)(=O)O)c45)ccc3C)c2)c1 [suramin]
- Kd: 240 µM
